This passage reports inhibition and IC50 results from patent publication US20220144847A1, “HETEROCYCLIC COMPOUND, PHARMACEUTICAL COMPOSITION COMPRISING SAME, PREPARATION METHOD THEREFOR, AND USE THEREOF” (Sichuan Kelun-Biotech Biopharmaceutical Co., Ltd., priority 2019, published 2022).

VEGFR2, sequence (P35968 20-1356, species assumed): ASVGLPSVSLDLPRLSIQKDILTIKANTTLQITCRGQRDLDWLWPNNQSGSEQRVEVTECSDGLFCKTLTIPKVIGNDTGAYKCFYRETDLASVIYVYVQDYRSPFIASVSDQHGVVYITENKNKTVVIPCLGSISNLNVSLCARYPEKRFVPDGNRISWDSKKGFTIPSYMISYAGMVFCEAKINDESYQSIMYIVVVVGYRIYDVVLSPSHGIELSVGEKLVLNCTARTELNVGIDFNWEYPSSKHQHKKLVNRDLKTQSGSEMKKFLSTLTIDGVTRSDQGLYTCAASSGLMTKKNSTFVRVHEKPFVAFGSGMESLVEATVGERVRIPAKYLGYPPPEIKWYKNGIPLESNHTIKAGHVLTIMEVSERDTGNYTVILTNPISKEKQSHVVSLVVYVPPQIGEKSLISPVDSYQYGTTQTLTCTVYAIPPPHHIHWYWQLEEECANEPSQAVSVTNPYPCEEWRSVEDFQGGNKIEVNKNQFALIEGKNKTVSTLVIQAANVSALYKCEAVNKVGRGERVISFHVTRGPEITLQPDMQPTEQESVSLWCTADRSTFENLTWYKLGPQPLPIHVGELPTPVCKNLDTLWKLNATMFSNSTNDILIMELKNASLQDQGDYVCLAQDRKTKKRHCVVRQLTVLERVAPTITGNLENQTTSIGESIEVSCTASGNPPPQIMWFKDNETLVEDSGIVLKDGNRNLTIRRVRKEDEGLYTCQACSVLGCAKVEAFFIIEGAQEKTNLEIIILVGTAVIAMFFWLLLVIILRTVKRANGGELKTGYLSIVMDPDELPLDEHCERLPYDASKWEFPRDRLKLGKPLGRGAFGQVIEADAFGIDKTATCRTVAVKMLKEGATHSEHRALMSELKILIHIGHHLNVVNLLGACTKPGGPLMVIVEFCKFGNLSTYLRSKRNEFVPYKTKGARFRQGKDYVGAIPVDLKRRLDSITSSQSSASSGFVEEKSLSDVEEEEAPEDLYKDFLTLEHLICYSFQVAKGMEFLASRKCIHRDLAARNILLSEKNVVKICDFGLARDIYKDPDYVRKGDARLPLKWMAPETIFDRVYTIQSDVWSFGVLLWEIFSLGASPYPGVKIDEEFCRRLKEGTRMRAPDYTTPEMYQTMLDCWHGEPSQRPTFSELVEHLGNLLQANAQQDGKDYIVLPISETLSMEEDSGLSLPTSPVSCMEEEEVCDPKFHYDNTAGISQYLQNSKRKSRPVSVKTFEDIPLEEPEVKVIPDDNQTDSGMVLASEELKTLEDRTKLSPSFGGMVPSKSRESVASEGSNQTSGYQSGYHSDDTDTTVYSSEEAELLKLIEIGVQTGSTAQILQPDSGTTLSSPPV
RET-V804M, sequence (P07949 29-1114 V804M): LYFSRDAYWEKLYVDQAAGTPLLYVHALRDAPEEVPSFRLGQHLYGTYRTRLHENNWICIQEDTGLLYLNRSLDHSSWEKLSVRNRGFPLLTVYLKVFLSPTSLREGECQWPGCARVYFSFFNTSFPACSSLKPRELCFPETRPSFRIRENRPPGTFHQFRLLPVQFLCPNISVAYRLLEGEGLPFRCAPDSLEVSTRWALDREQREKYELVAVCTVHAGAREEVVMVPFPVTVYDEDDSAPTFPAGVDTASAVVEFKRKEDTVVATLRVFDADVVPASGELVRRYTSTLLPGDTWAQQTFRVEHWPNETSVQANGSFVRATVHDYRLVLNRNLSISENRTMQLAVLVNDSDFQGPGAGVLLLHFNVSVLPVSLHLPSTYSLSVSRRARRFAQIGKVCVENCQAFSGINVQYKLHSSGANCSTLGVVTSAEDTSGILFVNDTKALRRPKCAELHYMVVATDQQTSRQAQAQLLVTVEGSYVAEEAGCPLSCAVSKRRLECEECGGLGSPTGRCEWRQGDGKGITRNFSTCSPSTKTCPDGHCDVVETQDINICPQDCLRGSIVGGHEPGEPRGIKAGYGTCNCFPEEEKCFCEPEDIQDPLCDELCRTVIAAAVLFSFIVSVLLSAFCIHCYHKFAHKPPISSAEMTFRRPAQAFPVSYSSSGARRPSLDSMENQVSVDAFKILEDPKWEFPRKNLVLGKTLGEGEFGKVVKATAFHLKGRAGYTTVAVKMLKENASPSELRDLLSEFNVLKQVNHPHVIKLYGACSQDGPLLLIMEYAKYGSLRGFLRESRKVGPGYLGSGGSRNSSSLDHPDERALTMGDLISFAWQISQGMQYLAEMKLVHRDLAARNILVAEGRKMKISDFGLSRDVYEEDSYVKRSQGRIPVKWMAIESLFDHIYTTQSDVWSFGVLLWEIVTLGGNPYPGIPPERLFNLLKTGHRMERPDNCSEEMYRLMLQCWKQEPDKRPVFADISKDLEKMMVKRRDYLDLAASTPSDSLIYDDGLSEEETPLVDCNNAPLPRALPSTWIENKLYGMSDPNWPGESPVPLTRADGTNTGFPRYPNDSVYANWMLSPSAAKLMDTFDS

One experiment concerns the target RET-V804M (Homo sapiens, UniProt P07949, V804M). Briefly: RET inhibition experiment (HTRF KinEASE-TK kit), mutant RET-V804M. The format is biochemical. The note with it: 10 nM (Table 2); read-out: Inhibition rate on RET-V804M. As for the experimental part:
Experimental method: According to the instructions of the HTRF KinEASE-TK kit (Cisbio), the compounds of the present disclosure were tested for their inhibitory effects on the activity of wild-type RET enzyme, mutant RET enzyme (RET-V804M, RET-V804L, and RET-M918T) and fusion-type RET enzyme (RET-CCDCl6). After pre-incubation of different RET enzymes and different concentrations of the test compounds at room temperature for 30 min, a substrate and adenosine triphosphate (ATP) were added to initiate the reaction. After incubation at room temperature for 40 min, TK antibody-cryptate and streptavidin-XL665 were added, and the test was performed after incubation at room temperature for 45 min. With the solvent group (DMSO) as the negative control and the buffer group (without RET enzyme) as the blank control, the relative inhibitory activity percentages (i.e., inhibition rates) of different concentrations of the compounds were computed as per the following formula:
(§1) Relative inhibitory activity percentage=1−(compound group of different concentrations−blank control)/(negative control−blank control)*100%
(§2) The relative inhibitory activity percentages of different concentrations of the compounds were plotted with respect to the compound concentrations, and the curve was fitted according to a four-parameter model to compute the IC50 value as per the following formula:
(§3) y=min+(max−min)/(1+(x/IC50)^(−Hillslope))
(§4) where y is the relative inhibitory activity percentage, max is the maximum value of the fitted curve, min is the minimum value of the fitted curve, x is the logarithmic concentration of the compound, and Hillslope is the slope of the curve.
In general, inhibition refers to the change of the read-out against control, counted positive when it falls. Regarding `Cc1cc(Nc2cc(C)[nH]n2)nc(-c2ccc(N3CC4CC(C3)N4Cc3ccc(-n4ncc(Cl)c4C)nc3)nc2)n1` [Compound 28′, 2-(6-(6-((6-(4-chloro-5-methyl-1H-pyrazol-1-yl)pyridin-3-yl)methyl)-3,6-diazabicyclo[3.1.1]heptan-3-yl)pyridin-3-yl)-6-methyl-N-(5-methyl-1H-pyrazol-3-yl)pyrimidin-4-amine], the inhibition at 0.01 µM came out at 34%.

The same experiment, now with this note: 100 nM (Table 2); read-out: Inhibition rate on RET-V804M.
As to `Cc1ccc(CN2C3CC2CN(c2ccc(-c4nc(C)cc(Nc5cc(C)[nH]n5)n4)cn2)C3)cn1` [Compound 16, 6-methyl-N-(5-methyl-1H-pyrazol-3-yl)-2-(6-(6-((6-methylpyridin-3-yl)methyl)-3,6-diazabicyclo[3.1.1]heptan-3-yl)pyridin-3-yl)pyrimidin-4-amine], the inhibition at 0.1 µM worked out at 92%.
In the case of `COc1cncc(CN2C3CC2CN(c2ccc(-c4nc(C)cc(Nc5cc(C)[nH]n5)n4)cn2)C3)c1` [Compound 18, 2-(6-(6-((5-methoxypyridin-3-yl)methyl)-3,6-diazabicyclo[3.1.1]heptan-3-yl)pyridin-3-yl)-6-methyl-N-(5-methyl-1H-pyrazol-3-yl)pyrimidin-4-amine], the inhibition at 0.1 µM is 70%.
Turning to `Cc1cc(Nc2cc(C)[nH]n2)nc(-c2ccc(N3CC4CC(C3)N4Cc3cnccc3C)nc2)n1` [Compound 21, 6-methyl-N-(5-methyl-1H-pyrazol-3-yl)-2-(6-(6-((4-methylpyridin-3-yl)methyl)-3,6-diazabicyclo[3.1.1]heptan-3-yl)pyridin-3-yl)pyrimidin-4-amine], the inhibition at 0.1 µM is 49%.
`COc1ccc(CN2CCN(c3ccc(-c4nc(C)cc(Nc5cc(C)[nH]n5)n4)cn3)CC2)cn1` [Compound 49, 2-(6-(4-((6-methoxypyridin-3-yl)methyl)piperazin-1-yl)pyridin-3-yl)-6-methyl-N-(5-methyl-1H-pyrazol-3-yl)pyrimidin-4-amine]: the inhibition at 0.1 µM was found to be 75%.
With `COc1ccc(CN2C3CC2CN(c2ccc(-c4nc(C)cc(Nc5cc(C)[nH]n5)n4)cn2)C3)nc1` [Compound 67, 2-(6-(6-((5-methoxypyridin-2-yl)methyl)-3,6-diazabicyclo[3.1.1]heptan-3-yl)pyridin-3-yl)-6-methyl-N-(5-methyl-1H-pyrazol-3-yl)pyrimidin-4-amine], the inhibition at 0.1 µM stood at 82%.
For the compound `Cc1cc(Nc2cc(C)[nH]n2)nc(-c2ccc(N3CC4CC(C3)N4Cc3cncc(F)c3)nc2)n1` [Compound 98, 2-(6-(6-((5-fluoropyridin-3-yl)methyl)-3,6-diazabicyclo[3.1.1]heptan-3-yl)pyridin-3-yl)-6-methyl-N-(5-methyl-1H-pyrazol-3-yl)pyrimidin-4-amine], the inhibition at 0.1 µM is 63%.
Still for that read-out and setting: with `COc1ccc(C(=O)N2CCN(c3ccc(-c4nc(C)cc(Nc5cc(C)[nH]n5)n4)cn3)CC2)cn1` [Compound 110, (6-methoxypyridin-3-yl)(4-(5-(4-methyl-6-((5-methyl-1H-pyrazol-3-yl)amino)pyrimidin-2-yl)pyridin-2-yl)piperazin-1-yl)methanone] the figure was 62%; with `COc1ccc(CC(=O)N2CCN(c3ccc(-c4nc(C)cc(Nc5cc(C)[nH]n5)n4)cn3)CC2)cn1` [Compound 111, 2-(6-methoxypyridin-3-yl)-1-(4-(5-(4-methyl-6-((5-methyl-1H-pyrazol-3-yl)amino)pyrimidin-2-yl)pyridin-2-yl)piperazin-1-yl)ethan-1-one], 46%; with `Cc1cc(Nc2cc(C)[nH]n2)nc(-c2ccc(N3CC4CC(C3)N4Cc3ccc(C#N)nc3)nc2)n1` [Compound 117, 5-((3-(5-(4-methyl-6-((5-methyl-1H-pyrazol-3-yl)-amino)pyrimidin-2-yl)pyridin-2-yl)-3,6-diazabicyclo[3.1.1]heptan-6-yl)methyl)-2-cyanopyridine], 76%.
In the case of `Cc1cc(Nc2cc(C)[nH]n2)nc(-c2ccc(N3CC4CC(C3)N4Cc3ccc(C(F)(F)F)nc3)nc2)n1` [Compound 118, 6-methyl-N-(5-methyl-1H-pyrazol-3-yl)-2-(6-(6-((6-(trifluoromethyl)pyridin-3-yl)methyl)-3,6-diazabicyclo[3.1.1]heptan-3-yl)pyridin-3-yl)pyrimidin-4-amine], the inhibition at 0.1 µM came out at 74%.
Same read-out and setting: the figure for `Cc1cc(Nc2cc(C)[nH]n2)nc(-c2ccc(N3CC4CC(C3)N4Cc3ccc(-n4cc(CF)cn4)nc3)nc2)n1` [Compound 126, 2-(6-(6-((6-(4-fluoromethyl-1H-pyrazol-1-yl)pyridin-3-yl)methyl)-3,6-diazabicyclo[3.1.1]heptan-3-yl)pyridin-3-yl)-6-methyl-N-(5-methyl-1H-pyrazol-3-yl)pyrimidin-4-amine] is 82%; for `Cc1cc(Nc2cc(C)[nH]n2)nc(-c2ccc(N3CC4CC(C3)N4Cc3ccc(-n4cc(CO)cn4)nc3)nc2)n1` [Compound 127, (1-(5-((3-(5-(4-methyl-6-((5-methyl-1H-pyrazol-3-yl)amino)pyrimidin-2-yl)pyridin-2-yl)-3,6-diazabicyclo[3.1.1]heptan-6-yl)methyl)pyridin-2-yl)-1H-pyrazol-4-yl)methanol] it is 84%.

Still in this experiment, the particulars now being: read-out: Inhibition rate on RET-V804M.
In the case of `COc1ccc(C(C)N2C3CC2CN(c2ccc(-c4nc(C)cc(Nc5cc(C)[nH]n5)n4)cn2)C3)cc1` (centres unmarked) [Compound 50, 2-(6-(6-(1-(4-methoxyphenyl)ethyl)-3,6-diazabicyclo[3.1.1]heptan-3-yl)pyridin-3-yl)-6-methyl-N-(5-methyl-1H-pyrazol-3-yl)pyrimidin-4-amine], the inhibition at 0.1 µM was determined as 50%.
On the same count and under the same terms, with `Cc1cc(Nc2cc(C)[nH]n2)nc(-c2ccc(N3CC4CC(C3)N4Cc3ccc(C(F)(F)F)cc3)nc2)n1` [Compound 84, 6-methyl-N-(5-methyl-1H-pyrazol-3-yl)-2-(6-(6-(4-(trifluoromethyl)benzyl)-3,6-diazabicyclo[3.1.1]heptan-3-yl)pyridin-3-yl)pyrimidin-4-amine] the figure was 72%.
Same read-out and setting: with `Cc1cc(Nc2cc(C)[nH]n2)nc(-c2ccc(N3CC4CC(C3)N4Cc3ccc(C#N)cc3)nc2)n1` [Compound 85, 4-((3-(5-(4-methyl-6-((5-methyl-1H-pyrazol-3-yl)-amino)pyrimidin-2-yl)pyridin-2-yl)-3,6-diazabicyclo[3.1.1]heptan-6-yl)methyl)benzonitrile] the figure was 77%.

Staying with this experiment, now noted: read-out: The IC50 (nM) for inhibiting V804M.
The term IC50 denotes the concentration at which inhibition is half-maximal. On to `Cc1cc(Nc2cc(C)[nH]n2)nc(-c2ccc(N3C[C@H]4C[C@@H](C3)N4C(C)c3ccc(-n4cc(F)cn4)nc3)nc2)n1` (single isomer, unassigned) [Compound 52-2], for which the IC50 came to 13 ± 2.34 nM.

The next experiment has as its target VEGFR2 (Homo sapiens, UniProt P35968). In words: VEGFR2 inhibition experiment (HTRF KinEASE-TK kit). The experiment is classed as biochemical. Conditions: 100 nM; read-out: Inhibition rate on VEGFR2. On the procedure: Experimental method: According to the instructions of the HTRF KinEASE-TK kit (Cisbio), the compounds of the present disclosure were tested for their inhibitory effects on the VEGFR2 enzyme activity. After pre-incubation of the VEGFR2 enzyme and different concentrations of test compounds at room temperature for 30 min, a substrate and adenosine triphosphate (ATP) were added to initiate the reaction. After incubation at room temperature for 40 min, TK antibody-cryptate and streptavidin-XL665 were added, and the test was performed after incubation at room temperature for 45 min. With the solvent group (DMSO) as the negative control and the buffer group (without VEGFR2 enzyme) as the blank control, the relative inhibitory activity percentages (i.e., inhibition rates) of different concentrations of the compounds were computed as per the following formula:
as §1, §2, §3, §4
(In general: Time-resolved FRET reads energy transfer from a long-lived donor to a nearby acceptor.)
With `Cc1cc(Nc2cc(C)[nH]n2)nc(-c2ccc(N3CC4CC(C3)N4C(C)c3ccc(-n4cc(F)cn4)nc3)nc2)n1` (centres unmarked) [Compound 52, 2-(6-(6-(1-(6-(4-fluoro-1H-pyrazol-1-yl)pyridin-3-yl)ethyl)-3,6-diazabicyclo[3.1.1]heptan-3-yl)pyridin-3-yl)-6-methyl-N-(5-methyl-1H-pyrazol-3-yl)pyrimidin-4-amine], the inhibition at 0.1 µM is -5%.

The same experiment, now with this note: 300 nM; read-out: Inhibition rate on VEGFR2.
Consider `Cc1cc(Nc2cc(C)[nH]n2)nc(-c2ccc(N3C[C@H]4C[C@@H](C3)N4C(C)c3ccc(-n4cc(F)cn4)nc3)nc2)n1` (single isomer, unassigned) [Compound 52-2], for which the inhibition at 0.3 µM was 12%.
As for `Cc1cc(Nc2cc(C)[nH]n2)nc(-c2ccc(N3CC4CC(C3)N4C(C)c3ccc(-n4cccn4)nc3)nc2)n1` (centres unmarked) [Compound 125, 2-(6-(6-(1-(6-(1H-pyrazol-1-yl)pyridin-3-yl)ethyl)-3,6-diazabicyclo[3.1.1]heptan-3-yl)pyridin-3-yl)-6-methyl-N-(5-methyl-1H-pyrazol-3-yl)pyrimidin-4-amine], the inhibition at 0.3 µM is 44%.
